This note sets out measurements from patent publication US20120058500A1, “PLATELET AGGREGATION USING A MICROFLUIDICS DEVICE” (Monash University, priority 2009, published 2012).

Test [1] has as its system platelet aggregation in human whole blood. Kind of test: Anti-platelet inhibitor effects in microchannel, c85 g30 e85 100-100 μm format. It counts as cell-based. To be noted: 10 mins pre-treatment, hirudin anti-coagulated whole blood, FIG. 22. The procedure:
(§1) Blood samples from subjects were taken via venisection of the antecubital vein using a 10 ml syringe fitted with a 19 guage needle containing 800 U/ml hirudin as anticoagulant.
(§2) Blood perfusion studies through the device were carried out using hiridin (800 U/ml) anticoagulated whole blood taken from consenting human donors. Whole blood samples were incubated at 37° C. for 10 minutes with the lipophylic membrane dye DiOC6 (1 μg/ml) or DiICl2 (1 μg/ml) to allow the cells to be more readily visualised through the device.
The micro-geometry device used in the present example has a contraction angle (θc) of 85°, an expansion angle (θe) of 85°, a gap width of 30 μm, a gap length of 15 μm and channel entry and exit width of 100 μm (c85 g30 e85 100-100 μm format).
The following anti-platelet drugs were used either alone or in combination: • 1. Hirudin: Human whole blood anti-coagulated with Hirudin (800 U/ml) as a control. • 2. Hirudin+MRS: Human (hirudin anti-coagulated) whole blood pre-treated for 10 mins with 100 μM of the P2Y1 adenosine-5′-diphosphate (ADP) antagonist N6-methyl-2′-deoxyadenosine-3′,5′-bisphosphate (MRS2179). • 3. Hirudin+2Me: Human (hirudin anti-coagulate) whole blood pre-treated for 10 mins with 10 μM of the P2Y12 (ADP) antagonist 2-methylthio-AMP (2MesAMP). • 4. […]

The test system of test [2] is platelet aggregation in human blood. To be noted: treated samples versus normal samples, specific microchannel geometries. The source says: It will be further appreciated that the device and method of the invention can be used to assay the effectiveness of particular drugs or substances.
Test [3] concerns platelet aggregation in whole blood. Kind of test: Real-time epi-fluorescence imaging of DiOC6 labeled whole blood perfusion through the c60g20e60 microchannel. It is filed as cell-based, human. The following applies: 20 μg/ml; blood also pre-treated with apyrase, MRS2179, 2-MeSAMP, Indomethacin, hirudin; 16 μL/min, input strain rate 1,800 s-1. The protocol:
as §1, §2
FIG. 20a represents real-time epi-fluorescence imaging of DiOC6 labeled whole blood perfusion at a constant flow rate of 16 μL/min (input strain rate=1,800 s−1) through the c60g20e60 geometric format over a 10 min timeframe, following pre-treatment for 10 minutes with the platelet inhibitors apyrase (0.02 U/ml), N6-methyl-2′-deoxyadenosine-3′,5′-bisphosphate (MRS2179 at 100 μM) and 2-methylthio-AMP (2-MeSAMP at 10 μM) to block ADP; Indomethacin (10 μM) to block TXA2; and hirudin (800 U/ml) to block thrombin. […] To investigate the platelet adhesion receptors mediating the aggregation response, whole blood samples were pretreated with the anti-integrin αIIbβ3 ab c7E3 (20 μg/ml) to block the platelet integrin αIIbβ3 or the anti-GPIb IgG Alma12 (50 μg/ml) to block platelet GPIb/V/IX engagement of VWF.

Test [4] concerns platelet aggregation in hirudin-anticoagulated whole blood. Kind of test: Whole blood perfusion through step geometry micro-shear gradient device (c90 g10 e60 100-700 μm format), platelet aggregation traces. It counts as cell-based, human. To be noted: whole blood treated 10 minutes with 30 μg/ml prior to perfusion; input shear rate 1,800 s^-1; FIG. 11c. The procedure: as §1, §2
FIG. 11a is a representative micrograph (40× magnification) sequence of human (hirudin anti-coagulated) blood perfusion through a micro-shear gradient device consisting of an in-flow (entry) width of 100 μm, a contraction angle (θc) of 90°, a gap height of 10 μm, an expansion angle (θe)) of 60°, and an expansion/exit width of 700 μm. The grey arrow denotes the point of initial aggregation [t=12 sec], the black arrow designates the limit of thrombus growth in the expansion zone (representative of n=3 experiments).
FIG. 11c comprises representative aggregation traces showing the response of whole blood perfusion through the PDMS microchannel device depicted in FIG. 11a. […]

Positions of bridges follow the written chain, without caps; N, C: chain ends. Non-standard residues stand in square brackets, D forms with d. Residues, ends and D or L forms follow the SMILES beside them. hArg = N=C(N)NCCCC[C@H](N)C(=O)O; Mpa = O=C(O)CCS

In the case of `CNc1ncnc2c1ncn2[C@H]1C[C@H](OP(=O)(O)O)[C@@H](COP(=O)(O)O)O1` [MRS, N6-methyl-2′-deoxyadenosine-3′,5′-bisphosphate], the “effect on the aggregation profile in the device” value in test [1] (100 μM, compared with the P2Y12 inhibitor) is “much more marked effect”.

Regarding `CSc1nc(N)c2ncn([C@@H]3O[C@H](COP(=O)(O)O)[C@@H](O)[C@H]3O)c2n1` [inhibitor of the P2Y12 (ADP) receptor, 2-methylthio-AMP], the “reduction in overall aggregation in the device” value in test [1] (10 μM) was 50%.

With `N=C(N)NCCCC[C@@H]1NC(=O)CCSSC[C@@H](C(N)=O)NC(=O)[C@@H]2CCCN2C(=O)[C@H](Cc2c[nH]c3ccccc23)NC(=O)[C@H](CC(=O)O)NC(=O)CNC1=O` [integrilin] ([Mpa][hArg]GDWPC-NH2; disulfide 1-7), the “platelet aggregation profile versus normal samples” value in test [2] was “different platelet aggregation profile”.

B1: c7E3 Fab: anti-integrin αIIbβ3 ab c7E3, used to block the platelet integrin αIIbβ3 (antibody, chains of the INN, looked up, V domains shown)
VH: EVQLQQSGTVLARPGASVKMSCEASGYTFTNYWMHWVKQRPGQGLEWIGAIYPGNSDTSYIQKFKGKAKLTAVTSTTSVYMELSSLTNEDSAVYYCTLYDGYYVFAYWGQGTLVTVSA
VL: EIVLTQSPVTLSVTPGDSVSLSCRASRDISNNLHWFQQTSHESPRLLIKYASQSMSGIPSRFSGSGSGTDFTLSINSVETEDFGMYFCQQTNSWPYTFGGGTKLEIK
modifications: Fab
B1: the “platelet aggregation within the c60g20e60 geometry” value in test [3] is recorded as “completely inhibited”. Also, in test [4], the “initial recruitment at the stenosis apex” value is on record as “markedly delayed” and the overall aggregation entry is listed as “suppressed”.
